Drawing on ChEMBL document CHEMBL3425430, “α-Substituted 2-(3-fluoro-4-methylsulfonamidophenyl)acetamides as potent TRPV1 antagonists” (Bioorg Med Chem Lett, 2015), this text covers Ki and IC50 for 16 compounds.

The term Ki denotes a dissociation constant, usually derived from enzyme kinetics or from competition with a known ligand. For orientation: IC50 means the concentration needed to halve the response being measured.

Type in all cases: cell-based
Assay [1] has as its target T1, Transient receptor potential cation channel subfamily V member 1 (Homo sapiens, UniProt Q8NER1). As to the kind of experiment: Antagonist activity at human TRPV1 expressed in CHO cells assessed as inhibition of capsaicin-induced activation by FLIPR assay.
The target in assay [2] is T1, Transient receptor potential cation channel subfamily V member 1. As to the kind of experiment: Antagonist activity at human TRPV1 expressed in CHO cells assessed as inhibition of N-arachidonoyl dopamine-induced activation by FLIPR assay.
Assay [3] has the same target. The assay can be described thus: Antagonist activity at human TRPV1 expressed in CHO cells assessed as inhibition of 45 degC heat-induced activation by FLIPR assay.

Molecules are shown by their SMILES.

T1 sequence (Q8NER1 whole entry): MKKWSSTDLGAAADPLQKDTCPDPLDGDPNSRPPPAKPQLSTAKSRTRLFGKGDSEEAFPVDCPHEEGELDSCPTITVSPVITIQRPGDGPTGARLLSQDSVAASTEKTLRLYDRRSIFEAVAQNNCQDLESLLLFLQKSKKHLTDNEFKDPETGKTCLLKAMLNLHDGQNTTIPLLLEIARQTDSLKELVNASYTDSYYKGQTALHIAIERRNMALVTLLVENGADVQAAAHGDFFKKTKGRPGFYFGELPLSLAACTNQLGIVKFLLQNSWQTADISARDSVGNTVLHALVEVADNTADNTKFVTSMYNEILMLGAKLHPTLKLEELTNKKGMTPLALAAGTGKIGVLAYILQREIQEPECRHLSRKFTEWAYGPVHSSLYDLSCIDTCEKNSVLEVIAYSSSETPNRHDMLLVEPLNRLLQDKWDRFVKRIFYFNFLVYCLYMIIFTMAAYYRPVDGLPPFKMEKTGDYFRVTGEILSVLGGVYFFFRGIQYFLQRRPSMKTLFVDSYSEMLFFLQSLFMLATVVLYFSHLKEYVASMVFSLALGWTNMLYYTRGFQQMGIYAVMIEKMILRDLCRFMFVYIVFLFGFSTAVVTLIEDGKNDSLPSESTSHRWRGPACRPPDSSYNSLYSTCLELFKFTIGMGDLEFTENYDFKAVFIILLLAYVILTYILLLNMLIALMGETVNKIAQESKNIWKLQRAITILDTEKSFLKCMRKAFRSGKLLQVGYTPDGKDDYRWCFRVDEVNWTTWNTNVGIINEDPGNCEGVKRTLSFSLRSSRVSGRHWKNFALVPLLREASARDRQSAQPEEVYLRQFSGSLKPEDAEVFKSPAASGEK

On to `Cc1ccc(C(C(=O)NCc2ccc(C(F)(F)F)nc2SC2CCCCC2)c2ccc(NS(C)(=O)=O)c(F)c2)cc1` (configuration not stated), for which the Ki in assay [1] (read-out: Ki) was determined as 7.5 nM.
For the compound `CS(=O)(=O)Nc1ccc(C2(C(=O)NCc3ccc(C(F)(F)F)nc3SC3CCCCC3)CCCC2)cc1F`, the Ki entry in assay [1] (cho) is recorded as “Active”.
Consider `CC1CCN(c2nc(C(F)(F)F)ccc2CNC(=O)C2(c3ccc(NS(C)(=O)=O)c(F)c3)CCCC2)CC1`, for which the Ki entry in assay [1] (cho) is “Active”.
Consider `Cc1ccc(CC(C(=O)NCc2ccc(C(F)(F)F)nc2N2CCC(C)CC2)c2ccc(NS(C)(=O)=O)c(F)c2)cc1` (configuration not stated), for which the Ki entry in assay [1] (cho) is on record as “Active”.
For the compound `CS(=O)(=O)Nc1ccc(C(C(=O)NCc2ccc(C(F)(F)F)nc2SC2CCCCC2)c2cccc(F)c2)cc1F` (configuration not stated), in assay [1] (read-out: Ki), the inhibitory constant (Ki) was 48.7 nM.
For the compound `Cc1cccc(C(C(=O)NCc2ccc(C(F)(F)F)nc2N2CCC(C)CC2)c2ccc(NS(C)(=O)=O)c(F)c2)c1` (configuration not stated), in assay [2], the Ki stood at 0.25 nM. The half-maximal inhibitory concentration (IC50) in assay [3] was determined as 36.2 nM.
On to `CS(=O)(=O)Nc1ccc(C(Cc2ccc(F)cc2)C(=O)NCc2ccc(C(F)(F)F)nc2SC2CCCCC2)cc1F` (configuration not stated), for which the inhibition constant (Ki) result in assay [1] (cho) is “Active”.
For the compound `CCC(C)(C(=O)NCc1ccc(C(F)(F)F)nc1SC1CCCCC1)c1ccc(NS(C)(=O)=O)c(F)c1` (configuration not stated), in assay [1] (cho), the Ki result is on record as “Active”.
For the compound `CC1CCN(c2nc(C(F)(F)F)ccc2CNC(=O)C(Cc2ccccc2)c2ccc(NS(C)(=O)=O)c(F)c2)CC1` (configuration not stated), the Ki in assay [1] (read-out: Ki) turned out to be 65.9 nM.
Turning to `CC1CCN(c2nc(C(F)(F)F)ccc2CNC(=O)C(Cc2ccc(F)cc2)c2ccc(NS(C)(=O)=O)c(F)c2)CC1` (configuration not stated), the inhibitory constant (Ki) in assay [1] (read-out: Ki) amounted to 49.3 nM.
For `Cc1ccccc1C(C(=O)NCc1ccc(C(F)(F)F)nc1SC1CCCCC1)c1ccc(NS(C)(=O)=O)c(F)c1` (configuration not stated), in assay [1] (cho), the Ki result is reported as “Active”.
Take `CS(=O)(=O)Nc1ccc(C(C(=O)NCc2ccc(C(F)(F)F)nc2SC2CCCCC2)c2ccc(F)cc2)cc1F` (configuration not stated): the Ki in assay [1] (read-out: Ki) came to 37.6 nM.
As for `CS(=O)(=O)Nc1ccc(C(C(=O)NCc2ccc(C(F)(F)F)nc2SC2CCCCC2)C2CCCCC2)cc1F` (configuration not stated), the Ki result in assay [1] (cho) is listed as “Active”.
For the compound `Cc1cccc(C(C(=O)NCc2ccc(C(F)(F)F)nc2SC2CCCCC2)c2ccc(NS(C)(=O)=O)c(F)c2)c1` (configuration not stated), the inhibitory constant (Ki) in assay [1] (read-out: Ki) was 56.4 nM.
Regarding `CS(=O)(=O)Nc1ccc(C(Cc2ccccc2)C(=O)NCc2ccc(C(F)(F)F)nc2SC2CCCCC2)cc1F` (configuration not stated), in assay [1] (cho), the Ki result is “Active”.
For `Cc1ccc(CC(C(=O)NCc2ccc(C(F)(F)F)nc2SC2CCCCC2)c2ccc(NS(C)(=O)=O)c(F)c2)cc1` (configuration not stated), in assay [1] (read-out: Ki), the inhibition constant Ki turned out to be 40.3 nM.
